Bridge positions count the residues as written; N and C are the ends. Peptide text beside a SMILES is read from it. * marks the point of attachment. Pentanoyl = CCCCC(=O)*
Test: toxicity in vivo, LD50 after intracerebroventricular injection
Conditions: mouse, icv or intrathecal, 20 g C57/BL6 mice
Procedure: Groups of six to eight mice per dose were injected with 5 μl peptide solution containing 0.1% (w/v) bovine serum albumin and 0.9% (w/v) NaCl. The LD50 values are set out in Table 5.

SMILES | LD50 [µg/kg]
CC[C@H](C)[C@@H]1NC(=O)[C@H](CCCCN)NC(=O)[C@@H](NC(=O)[C@H](CCCCN)NC(=O)[C@@H](NC(=O)[C@H](CC(N)=O)NC(=O)[C@@H](NC(=O)[C@@H](NC(=O)[C@@H](N)C(C)C)[C@@H](C)CC)[C@@H](C)CC)C(C)C)CSSC[C@@H]2NC(=O)[C@H](CCCCN)NC(=O)CNC(=O)[C@H](Cc3ccccc3)NC(=O)[C@H](CCCNC(=N)N)NC(=O)[C@H](CCSC)NC(=O)CNC(=O)[C@H](C)NC(=O)[C@H](CC(=O)O)NC(=O)[C@H](CCCCN)NC(=O)[C@@H]3CSSC[C@@H](C(=O)N[C@H](C(=O)N4CCC[C@H]4C(=O)N[C@@H](CCCCN)C(N)=O)[C@@H](C)O)NC(=O)[C@H](Cc4c[nH]cn4)NC(=O)[C@H](CSSC[C@H](NC(=O)[C@H](CCC(N)=O)NC(=O)[C@H](CCCNC(=N)N)NC(=O)[C@H](CO)NC1=O)C(=O)N[C@@H](CC(C)C)C(=O)N[C@@H](CCCCN)C(=O)N1CCC[C@H]1C(=O)N3)NC(=O)[C@H](CCCCN)NC(=O)CNC(=O)[C@H](CC(N)=O)NC(=O)[C@H](CCSC)NC2=O (H-VIINVKCKISRQCLKPCKDAGMRFGKCMNGKCHCTPK-NH2; disulfide 7-27, 13-32, 17-34) | 4.5
CC[C@H](C)[C@@H]1NC(=O)[C@H](CCCCN)NC(=O)[C@@H](NC(=O)[C@H](CCCCN)NC(=O)[C@@H](NC(=O)[C@H](CC(N)=O)NC(=O)[C@@H](NC(=O)[C@@H](NC(=O)[C@@H](N)C(C)C)[C@@H](C)CC)[C@@H](C)CC)C(C)C)CSSC[C@@H]2NC(=O)[C@H](CCCCN)NC(=O)CNC(=O)[C@H](Cc3ccccc3)NC(=O)[C@H](CCCNC(=N)N)NC(=O)[C@H](CCSC)NC(=O)CNC(=O)[C@H](C)NC(=O)[C@H](CC(=O)O)NC(=O)[C@H](CCCCN)NC(=O)[C@@H]3CSSC[C@@H](C(=O)N[C@H](C(=O)N4CCC[C@H]4C(=O)N[C@@H](CCCCN)C(=O)O)[C@@H](C)O)NC(=O)[C@H](Cc4c[nH]cn4)NC(=O)[C@H](CSSC[C@H](NC(=O)[C@H](CCC(N)=O)NC(=O)[C@H](CCCNC(=N)N)NC(=O)[C@H](CO)NC1=O)C(=O)N[C@@H](CC(C)C)C(=O)N[C@@H](CCCCN)C(=O)N1CCC[C@H]1C(=O)N3)NC(=O)[C@H](CCCCN)NC(=O)CNC(=O)[C@H](CC(N)=O)NC(=O)[C@H](CCSC)NC2=O (H-VIINVKCKISRQCLKPCKDAGMRFGKCMNGKCHCTPK-OH; disulfide 7-27, 13-32, 17-34) | 3
CCCCC(=O)NCC(=O)N[C@H](C(=O)N[C@H](C(=O)N[C@H](C(=O)N[C@@H](CC(N)=O)C(=O)N[C@H](C(=O)N[C@@H](CCCCN)C(=O)N[C@H]1CSSC[C@@H]2NC(=O)[C@H](CCCCN)NC(=O)CNC(=O)[C@H](Cc3ccccc3)NC(=O)[C@H](CCCNC(=N)N)NC(=O)[C@H](CCSC)NC(=O)CNC(=O)[C@H](C)NC(=O)[C@H](CC(=O)O)NC(=O)[C@H](CCCCN)NC(=O)[C@@H]3CSSC[C@@H](C(=O)N[C@H](C(=O)N4CCC[C@H]4C(=O)N[C@@H](CCCCN)C(=O)O)[C@@H](C)O)NC(=O)[C@H](Cc4c[nH]cn4)NC(=O)[C@H](CSSC[C@H](NC(=O)[C@H](CCC(N)=O)NC(=O)[C@H](CCCNC(=N)N)NC(=O)[C@H](CO)NC(=O)[C@H]([C@@H](C)CC)NC(=O)[C@H](CCCCN)NC1=O)C(=O)N[C@@H](CC(C)C)C(=O)N[C@@H](CCCCN)C(=O)N1CCC[C@H]1C(=O)N3)NC(=O)[C@H](CCCCN)NC(=O)CNC(=O)[C@H](CC(N)=O)NC(=O)[C@H](CCSC)NC2=O)C(C)C)[C@@H](C)CC)[C@@H](C)CC)C(C)C (Pentanoyl-GVIINVKCKISRQCLKPCKDAGMRFGKCMNGKCHCTPK-OH; disulfide 8-28, 14-33, 18-35) | 16

Source: patent US7745575B1 (Cellpep Pharma Inc., priority 2004, dated 2010)
